A word on the melting point: it is the temperature of the solid-liquid transition. For the compound `CCCS(=O)(=O)N[C@H](C(=O)NCCc1ccc(OCC#Cc2ccc(Cl)cc2)c(OC)c1)C(C)C` [Compound 1.204, (S)-2-(Propylsulfonyl-amino)-3-methyl-butyric acid N-[2-{3-methoxy-4-(3-(4-chlorophenyl)-2-propyn-1-yloxy)-phenyl}-ethyl]-amide], the melting point lay in the range of 131 to 133 °C.

These data come from patent US6482859B1, “Microbicidal N-sulfonylglycin alkynyloxyphenethyl amide derivatives” (priority 1997, dated 2002).
